The source of these data is US6028195A, “Piperazine derivatives and process for the preparation thereof” (Samjin Pharmaceutical Co., Ltd., priority 1996, dated 2000).

Structures are written as SMILES. Converted amounts (≈) assume the structure as drawn. Like-named read-outs stand apart in the source and are kept apart here.

Holding throughout (format): cell-based
One test concerns SKMEL-2 (human melanoma). Kind of test: SRB assay, in vitro antitumor effect against SKMEL-2. Conditions: Homo sapiens; SK-MEL-2, 48 hours; read-out: ED50 (the source's name). Here is the method: (§1) In vitro antitumor effect against human tumor cell lines.
(§2) b. 5×10^3 ~2×10^4 cells were added into each well of 96-well plate and cultured in 5% CO2 incubator, at 37° C., for 24 hours.
(§3) c. Each sample drug was dissolved in a little DMSO and diluted with the used medium to a prescribed concentration for experiments, wherein the final concentration of DMSO was controlled below 0.5%.
(§4) d. Medium of each well cultured for 24 hours as above b. was removed by aspiration. Each 200 μl of drug samples prepared in c. was added into each well and the wells were cultured for 48 hours. Tz(time zero) plates were collected at the point of time drugs were added.
(§5) e. According to the SRB assay method, cell fixing with TCA, staining with 0.4% SRB solution, washing with 1% acetic acid and elution of dye with 10 mM Tris solution were carried out on Tz plates and culture-ended plates, and then, OD values were measured at 520 nm.
(§6) a. Time zero(Tz) value was determined with measuring the SRB protein value at the point of time drugs were added.
(§7) b. Control value(C) was determined with the OD value of an well untreated with drug.
(§8) c. Drug-treated test value(T) was determined with the OD value of drug-treated well.
(§9) d. Effects of drugs were estimated with growth stimulation, net growth inhibition, net killing etc. calculated from Tz, C and T.
(§10) e. If T≥Tz, cellular response function was calculated by 100×(T-Tz)/(C-Tz), and if T<Tz, by 100×(T-Tz)/Tz.

The next test has as its system HCT-15 (human colon). Nature of the test: SRB assay, in vitro antitumor effect against HCT-15. Conditions: Homo sapiens; HCT 15, 48 hours; read-out: ED50 (the source's name). Here is the method:
as §1, §2, §3, §4, §5, §6, §7, §8, §9, §10

The next test concerns XF 498 (human CNS). Nature of the test: SRB assay, in vitro antitumor effect against XF 498. Conditions: Homo sapiens. On the procedure: as §1, §2, §3, §4, §5, §6, §7, §8, §9, §10
For test [1], the system named is A549 (human non-small lung cell). Kind of test: SRB assay, in vitro antitumor effect against A549. Particulars: Homo sapiens; A549, 48 hours; read-out: ED50 (the source's name). Here is the method: as §1, §2, §3, §4, §5, §6, §7, §8, §9, §10
A further test deals with SKOV-3 (human ovarian). Kind of test: SRB assay, in vitro antitumor effect against SKOV-3. Conditions: Homo sapiens; SK-OV-3, 48 hours; read-out: ED50 (the source's name). Here is the method:
as §1, §2, §3, §4, §5, §6, §7, §8, §9, §10

Where [2] appears, read: XF498, XF-498, 48 hours, read-out: ED50 (the source's name).

In the case of `COc1cc(C)c(C)cc1NC(=O)N1CCN(c2ccccc2OC)CC1` [Example 183, 1-[(4,5-Dimethyl-2-methoxyphenyl)aminocarbonyl]-4-(2-methoxyphenyl)piperazine], the IC50 came to 1170 ng/mL (≈ 3170 nM) with SKMEL-2 (human melanoma); 2090 ng/mL (≈ 5660 nM) with HCT-15 (human colon); 1410 ng/mL (≈ 3820 nM) in the test with XF 498 (human CNS) (setting [2]); 420 ng/mL (≈ 1140 nM) in test [1]; 2270 ng/mL (≈ 6140 nM) in the test with SKOV-3 (human ovarian).

With `CCC(C)(O)c1cc(N(C)C(=O)N2CCN(c3cc(C)cc(C)c3)CC2)c(OC)nc1C` (centres unmarked) [Example 156, 1-{N-[5-(1-Hydroxy-1-methylpropyl)-2-methoxy-6-methylpyridin-3-yl]-N-methylaminocarbonyl}-4-(3,5-dimethylphenyl)piperazine], the IC50 in the test on SKMEL-2 (human melanoma) turned out to be 90 ng/mL (≈ 204 nM); with HCT-15 (human colon), 70 ng/mL (≈ 159 nM); in the test on XF 498 (human CNS) (setting [2]), 60 ng/mL (≈ 136 nM); in test [1], 60 ng/mL (≈ 136 nM); in the test on SKOV-3 (human ovarian), 100 ng/mL (≈ 227 nM).

As to `COc1cc(C)c(C)cc1NC(=S)N1CCN(c2cccc(O)c2)CC1` [Example 206, 1-[(4,5-Dimethyl-2-methoxyphenyl)aminothiocarbonyl]-4-(3-hydroxyphenyl)piperazine], the IC50 amounted to 520 ng/mL (≈ 1400 nM) in the test on SKMEL-2 (human melanoma); 380 ng/mL (≈ 1020 nM) in the test with HCT-15 (human colon); 700 ng/mL (≈ 1880 nM) in the test on XF 498 (human CNS) (setting [2]); 470 ng/mL (≈ 1270 nM) in test [1]; 540 ng/mL (≈ 1450 nM) in the test on SKOV-3 (human ovarian).

As for `COc1cc(OC)cc(N2CCN(C(=S)Nc3cc(C(C)O)c(C)nc3OC)CC2)c1` (centres unmarked) [Example 63, 1-{[5-(1-Hydroxyethyl)-2-methoxy-6-methylpyridin-3-yl]aminothiocarbonyl}-4-(3,5-dimethoxyphenyl)piperazine], the IC50 in the test with SKMEL-2 (human melanoma) was found to be 110 ng/mL (≈ 246 nM); in the test on HCT-15 (human colon) it was 70 ng/mL (≈ 157 nM); in the test on XF 498 (human CNS) (setting [2]), 30 ng/mL (≈ 67.2 nM); in test [1], 40 ng/mL (≈ 89.6 nM); with SKOV-3 (human ovarian), 100 ng/mL (≈ 224 nM).

As to `COc1cc(OC)cc(N2CCN(C(=O)N(C)c3cc(C(C)OC)c(C)nc3OC)CC2)c1` (centres unmarked) [Example 157, 1-{N-[2-Methoxy-5-(1-methoxyethyl)-6-methylpyridin-3-yl]-N-methylaminocarbonyl}-4-(3,5-dimethoxyphenyl)piperazine], the IC50 in the test with SKMEL-2 (human melanoma) worked out at 0.043 ng/mL (≈ 0.0938 nM); in the test with HCT-15 (human colon), 0.211 ng/mL (≈ 0.46 nM); in the test on XF 498 (human CNS) (setting [2]), 0.245 ng/mL (≈ 0.534 nM); in test [1], 0.002 ng/mL (≈ 0.00436 nM); in the test with SKOV-3 (human ovarian), 0.002 ng/mL (≈ 0.00436 nM).

`CCCc1nc(OC)c(NC(=S)N2CCN(c3cc(C)cc(C)c3)CC2)cc1C` [Example 27, 1-[(2-Methoxy-5-methyl-6-propylpyridin-3-yl)aminothiocarbonyl]-4-(3,5-dimethylphenyl)piperazine]: the IC50 in the test on SKMEL-2 (human melanoma) is 10 ng/mL (≈ 24.2 nM); in the test with HCT-15 (human colon), 165 ng/mL (≈ 400 nM); in the test on XF 498 (human CNS) (XF498, 48 h, read-out: ED50), 46 ng/mL (≈ 111 nM); in test [1] it was 20 ng/mL (≈ 48.5 nM); in the test on SKOV-3 (human ovarian), 110 ng/mL (≈ 267 nM).

For the compound `COc1nc2ccccc2cc1NC(=O)N1CCN(c2cc(Cl)cc(Cl)c2)CC1` [Example 85, 1-[(2-Methoxyquinolin-3-yl)aminocarbonyl]-4-(3,5-dichlorolphenyl)piperazine], the IC50 was determined as 39 ng/mL (≈ 90.4 nM) with SKMEL-2 (human melanoma); 100 ng/mL (≈ 232 nM) in the test with HCT-15 (human colon); 104 ng/mL (≈ 241 nM) in the test with XF 498 (human CNS) (setting [2]); 48 ng/mL (≈ 111 nM) in test [1]; 117 ng/mL (≈ 271 nM) with SKOV-3 (human ovarian).

With `COc1nc2ccccc2cc1N(C)C(=O)N1CCN(c2cc(C)cc(C)c2)CC1` [Example 103, 1-[N-(2-Methoxyquinolin-3-yl)-N-methylaminocarbonyl]-4-(3,5-dimethylphenyl)piperazine], the IC50 amounted to 490 ng/mL (≈ 1210 nM) with SKMEL-2 (human melanoma); 330 ng/mL (≈ 816 nM) with HCT-15 (human colon); 360 ng/mL (≈ 890 nM) in the test on XF 498 (human CNS) (setting [2]); 520 ng/mL (≈ 1290 nM) in test [1]; 460 ng/mL (≈ 1140 nM) with SKOV-3 (human ovarian).

Take `COc1ccc(C)c(N2CCN(C(=O)N(C)c3cc(C)c(C)nc3OC)CC2)c1` [Example 140, 1-[N-(5,6-Dimethyl-2-methoxypyridin-3-yl)-N-methylaminocarbonyl]-4-(5-methoxy-2-methylphenyl)piperazine]: the IC50 stood at 560 ng/mL (≈ 1410 nM) with SKMEL-2 (human melanoma); 490 ng/mL (≈ 1230 nM) with HCT-15 (human colon); 540 ng/mL (≈ 1360 nM) in the test on XF 498 (human CNS) (setting [2]); 330 ng/mL (≈ 828 nM) in test [1]; 470 ng/mL (≈ 1180 nM) in the test on SKOV-3 (human ovarian).

For the compound `COc1cc(OC)cc(N2CCN(C(=S)Nc3cc4ccccc4nc3OC)CC2)c1` [Example 109, 1-[(2-Methoxyquinolin-3-yl)aminothiocarbonyl]-4-(3,5-dimethoxyphenyl)piperazine], the IC50 in the test with SKMEL-2 (human melanoma) turned out to be 860 ng/mL (≈ 1960 nM); with HCT-15 (human colon), 490 ng/mL (≈ 1120 nM); in the test with XF 498 (human CNS) (setting [2]) it was 530 ng/mL (≈ 1210 nM); in test [1], 470 ng/mL (≈ 1070 nM); with SKOV-3 (human ovarian) it was 910 ng/mL (≈ 2080 nM).
